Target: T1, PI3Kα H1047R (T47D cells) (Homo sapiens, UniProt P42336, H1047R)
T1 construct: endogenous in cells; host or cells: T47D cells
Experiment: PI3Kα cellular assay: pAKT HTRF in T47D cells after EGF stimulation
Assay type: cell-based
Conditions: for IC50: T47D cells (PI3Kα H1047R), pAKT S473 HTRF
Method in brief: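 T47D cells (PIK3CA H1047R) serum-starved 16 h, then treated 1 h at 37 °C with compound (10,000 nM top, 3-fold steps to 0.5 nM). After 10 min stimulation with 20 ng/mL EGF, cells were lysed and pAKT measured by HTRF.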

[1] = 1 hr compound, 20 ng/ml EGF 10 min
[2] = selectivity T47D (H1047R) over SKBR3 (WT), pAKT HTRF
[3] = selectivity of T47D (H1047R) over SKBR3 (WT) pAKT IC50

T1 sequence (P42336 whole entry H1047R): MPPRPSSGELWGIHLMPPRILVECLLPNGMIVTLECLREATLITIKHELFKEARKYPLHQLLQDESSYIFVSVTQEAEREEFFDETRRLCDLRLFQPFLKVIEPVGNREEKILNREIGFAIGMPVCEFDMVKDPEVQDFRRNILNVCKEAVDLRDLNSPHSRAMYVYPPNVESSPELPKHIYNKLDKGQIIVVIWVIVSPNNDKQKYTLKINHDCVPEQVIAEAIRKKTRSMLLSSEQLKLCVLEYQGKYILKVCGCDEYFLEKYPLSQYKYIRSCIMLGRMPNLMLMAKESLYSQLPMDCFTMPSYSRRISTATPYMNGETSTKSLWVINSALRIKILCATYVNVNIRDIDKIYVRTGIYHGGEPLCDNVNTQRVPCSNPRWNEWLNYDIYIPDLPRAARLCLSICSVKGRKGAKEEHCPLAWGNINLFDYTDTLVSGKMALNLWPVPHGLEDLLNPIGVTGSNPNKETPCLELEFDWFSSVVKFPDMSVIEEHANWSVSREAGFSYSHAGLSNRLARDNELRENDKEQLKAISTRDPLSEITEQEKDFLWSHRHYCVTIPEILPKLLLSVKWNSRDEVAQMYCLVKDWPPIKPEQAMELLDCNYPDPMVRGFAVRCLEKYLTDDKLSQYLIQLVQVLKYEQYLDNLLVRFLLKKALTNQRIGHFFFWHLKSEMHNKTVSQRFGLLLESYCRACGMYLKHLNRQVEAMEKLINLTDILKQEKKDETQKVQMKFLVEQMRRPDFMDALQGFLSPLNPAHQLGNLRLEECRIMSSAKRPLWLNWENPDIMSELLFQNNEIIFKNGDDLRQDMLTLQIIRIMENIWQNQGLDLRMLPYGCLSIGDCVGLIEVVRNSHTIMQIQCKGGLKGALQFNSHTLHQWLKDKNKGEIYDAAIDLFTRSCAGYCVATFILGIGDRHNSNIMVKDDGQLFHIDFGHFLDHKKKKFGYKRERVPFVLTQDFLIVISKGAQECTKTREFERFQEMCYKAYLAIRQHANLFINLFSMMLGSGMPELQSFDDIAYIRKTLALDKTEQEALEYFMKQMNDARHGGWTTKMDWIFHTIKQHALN
T1 sequence (P27986 whole entry partner): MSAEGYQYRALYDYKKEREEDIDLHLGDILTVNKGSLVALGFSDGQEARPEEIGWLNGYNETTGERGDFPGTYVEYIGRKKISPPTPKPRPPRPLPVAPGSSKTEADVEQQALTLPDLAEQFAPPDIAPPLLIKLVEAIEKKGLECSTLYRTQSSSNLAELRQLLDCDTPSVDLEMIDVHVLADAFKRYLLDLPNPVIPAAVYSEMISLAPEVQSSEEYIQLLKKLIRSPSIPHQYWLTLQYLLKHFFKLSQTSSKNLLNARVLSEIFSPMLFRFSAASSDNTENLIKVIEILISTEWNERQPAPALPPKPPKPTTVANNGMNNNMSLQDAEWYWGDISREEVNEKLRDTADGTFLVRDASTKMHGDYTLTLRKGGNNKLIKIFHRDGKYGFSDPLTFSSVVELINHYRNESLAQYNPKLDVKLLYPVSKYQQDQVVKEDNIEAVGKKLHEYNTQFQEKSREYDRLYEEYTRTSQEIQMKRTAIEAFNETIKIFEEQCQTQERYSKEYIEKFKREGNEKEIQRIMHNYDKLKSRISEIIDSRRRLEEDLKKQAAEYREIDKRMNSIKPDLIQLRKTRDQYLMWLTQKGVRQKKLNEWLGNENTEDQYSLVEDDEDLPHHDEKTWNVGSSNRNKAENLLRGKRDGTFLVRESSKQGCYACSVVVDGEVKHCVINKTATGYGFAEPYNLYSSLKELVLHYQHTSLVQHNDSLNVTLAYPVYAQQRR

| Compound | IC50 [1] [nM] | T47D pAKT S473 HTRF IC50 (H1047R): T47D (H1047R) selectivity over SKBR3 (WT) [2] | T47D pAKT S473 HTRF IC50 (H1047R): T47D (H1047R) selectivity over SKBR3 (WT) [3] | IC50 (EGF stimulation) [nM] |
| --- | --- | --- | --- | --- |
| Cc1cc([C@H](C)Nc2ccccc2C(=O)O)c2nc([C@H]3CCOC3)cc(=O)n2c1 [Compound 539] | 500 to 2000 | B (B denotes 20-fold≥value>5-fold) |  |  |
| Cc1cc([C@@H](C)Nc2ccccc2C(=O)O)c2nc(-c3ccc4[nH]c(=O)oc4c3)cc(=O)n2c1 [Compound 541] | 100 to 500 | A (A denotes >20-fold) |  |  |
| Cc1cc([C@H](C)Nc2ccccc2C(=O)O)c2nc(-c3ccc4[nH]c(=O)oc4c3)cc(=O)n2c1 [Compound 542] | > 2000 | C (C denotes ≤5-fold) |  |  |
| Cc1cc(C(C)Nc2ccccc2C(=O)O)c2nc(C3CCC(NS(C)(=O)=O)CC3)c(C)c(=O)n2c1 (centres unmarked) [Compound 543] | > 2000 | C (C denotes ≤5-fold) |  |  |
| Cc1cc(C(C)Nc2ccccc2C(=O)O)c2nc(C3CCC(NS(C)(=O)=O)CC3)c(C)c(=O)n2c1 (centres unmarked) [Compound 544] | > 2000 | C (C denotes ≤5-fold) |  |  |
| Cc1cc([C@@H](C)Nc2ccccc2C(=O)O)c2nc(Nc3ccc4[nH]c(=O)oc4c3)cc(=O)n2c1 [Compound 546] | > 2000 | C (C denotes ≤5-fold) |  |  |
| Cc1cc([C@H](C)Nc2ccccc2C(=O)O)c2nc(Nc3ccc4[nH]c(=O)oc4c3)cc(=O)n2c1 [Compound 547] | > 2000 | C (C denotes ≤5-fold) |  |  |
| Cc1cc(C(C)Nc2ccccc2C(=O)O)c2nc(Nc3ccc4[nH]c(=O)oc4c3)cc(=O)n2c1 (centres unmarked) [Compound 548] | > 2000 | C (C denotes ≤5-fold) |  |  |
| Cc1cc(C(C)Nc2ccccc2C(=O)O)c2nc(N3CCN(CCC(N)=O)CC3)cc(=O)n2c1 (centres unmarked) [Compound 550] | > 2000 | C (C denotes ≤5-fold) |  |  |
| Cc1cc(C(C)Nc2ccccc2C(=O)O)c2nc(N3CCN(CCC(N)=O)CC3)cc(=O)n2c1 (centres unmarked) [Compound 551] | > 2000 | C (C denotes ≤5-fold) |  |  |
| C=C(C)C1CCCC(c2cc(=O)n3cc(C)cc([C@@H](C)Nc4ccccc4C(=O)O)c3n2)CC1 (some centres unmarked) [Compound 552] |  | C (C denotes ≤5-fold) |  |  |
| Cc1cc(C(C)Nc2ccccc2C(=O)O)c2nc(N3CCN(C(C)(C)C(N)=O)CC3)cc(=O)n2c1 (centres unmarked) [Compound 554] | > 2000 | C (C denotes ≤5-fold) |  |  |
| Cc1cc([C@@H](C)Oc2ccccc2C(N)=O)c2nc(N3CCOCC3)cc(=O)n2c1 [Compound 562] | > 2000 | C (C denotes ≤5-fold) |  |  |
| Cc1cc([C@@H](C)Nc2cccc3[nH]c(=O)oc23)c2nc(N3CCOCC3)cc(=O)n2c1 [Compound 565] | > 2000 | C (C denotes ≤5-fold) |  |  |
| Cc1cc([C@H](C)Nc2cccc3[nH]c(=O)oc23)c2nc(N3CCOCC3)cc(=O)n2c1 [Compound 566] | > 2000 | C (C denotes ≤5-fold) |  |  |
| Cc1cc(C(C)Nc2ccccc2S(N)(=O)=O)c2nc(-c3cc(C)c4oc(=O)[nH]c4c3)cc(=O)n2c1 (centres unmarked) [Compound 570] | 100 to 500 | A (A denotes >20-fold) |  |  |
| Cc1cc(C(C)Nc2ccccc2S(N)(=O)=O)c2nc(-c3cc(C)c4oc(=O)[nH]c4c3)cc(=O)n2c1 (centres unmarked) [Compound 571] | > 2000 | C (C denotes ≤5-fold) |  |  |
| Cc1cc([C@H](C)Nc2ccccc2C(=O)O)c2nc(Nc3ccc4[nH]c(=O)[nH]c4c3)cc(=O)n2c1 [Compound 574] | > 2000 | C (C denotes ≤5-fold) |  |  |
| Cc1cc([C@@H](C)Nc2ccccc2C(=O)O)c2nc(-c3ccc4c(c3)NC(=O)C4)cc(=O)n2c1 [Compound 575] | 100 to 500 | A (A denotes >20-fold) |  |  |
| Cc1cc([C@H](C)Nc2ccccc2C(=O)O)c2nc(-c3ccc4c(c3)NC(=O)C4)cc(=O)n2c1 [Compound 576] | > 2000 | C (C denotes ≤5-fold) |  |  |
| CNC1=NC2C=C(c3cc(=O)n4cc(C)cc(C(C)Nc5ccccc5C(=O)O)c4n3)C=CC2=C1 (centres unmarked) [Compound 577] | 100 to 500 | A (A denotes >20-fold) |  |  |
| CC(=O)N[C@H]1CCCC(c2cc(=O)n3cc(C)cc(C(C)Nc4ccccc4C(=O)O)c3n2)C1 (some centres unmarked) [Compound 580] |  | C (C denotes ≤5-fold) |  |  |
| Cc1cc(C(C)Nc2ccccc2C(=O)O)c2nc(N3CCN(C(C)(C)C(N)=O)CC3)cc(=O)n2c1 (centres unmarked) [Compound 581] |  | C (C denotes ≤5-fold) |  |  |
| Cc1cc(C(C)Nc2ccccc2S(N)(=O)=O)c2nc(-c3ccc(F)cc3)cc(=O)n2c1 (centres unmarked) [Compound 585] | > 2000 | C (C denotes ≤5-fold) |  |  |
| Cc1cc(C(C)Nc2ccccc2S(N)(=O)=O)c2nc(-c3ccc(F)cc3)cc(=O)n2c1 (centres unmarked) [Compound 586] | > 2000 | C (C denotes ≤5-fold) |  |  |
| Cc1cc([C@H](C)Nc2ccccc2S(N)(=O)=O)c2nc(-c3ccc(F)cc3)cc(=O)n2c1 [Compound 587] | > 2000 | C (C denotes ≤5-fold) |  |  |
| Cc1cc([C@H](C)Nc2cccc3c2CCC(=O)N3)c2nc(N3CCOCC3)cc(=O)n2c1 [Compound 604] | > 2000 | C (C denotes ≤5-fold) |  |  |

Results, then the compound that gave them:

| IC50 [1] [nM] | T47D pAKT S473 HTRF IC50 (H1047R): T47D (H1047R) selectivity over SKBR3 (WT) [2] | T47D pAKT S473 HTRF IC50 (H1047R): T47D (H1047R) selectivity over SKBR3 (WT) [3] | IC50 (EGF stimulation) [nM] | Compound |
| --- | --- | --- | --- | --- |
| < 100 | A (A denotes >20-fold) |  |  | Cc1cc([C@@H](C)Nc2ccccc2S(N)(=O)=O)c2nc(N3Cc4ccccc4C3)cc(=O)n2c1 [Compound 605, (R)-2-((1-(2-(isoindolin-2-yl)-7-methyl-4-oxo-4H-pyrido[1,2-a]pyrimidin-9-yl)ethyl)amino)benzenesulfonamide] |
| 100 to 500 | A (A denotes >20-fold) |  |  | Cc1cc(C(C)Nc2ccccc2C(=O)O)c2nc(C3CCC(C)(C)CC3)cc(=O)n2c1 (centres unmarked) [Compound 622] |
| < 100 | A (A denotes >20-fold) |  |  | Cc1cc([C@@H](C)Nc2ccccc2C(=O)O)c2nc(C3CCC(C)(C)CC3)cc(=O)n2c1 [Compound 623, (R)-2-((1-(2-(4,4-dimethylcyclohexyl)-7-methyl-4-oxo-4H-pyrido[1,2-a]pyrimidin-9-yl)ethyl)amino)benzoic acid] |
| > 2000 | C (C denotes ≤5-fold) |  |  | Cc1cc([C@H](C)Nc2ccccc2C(=O)O)c2nc(C3CCC(C)(C)CC3)cc(=O)n2c1 [Compound 624] |
| > 2000 | C (C denotes ≤5-fold) |  |  | Cc1cc([C@@H](C)Nc2ccccc2C(=O)O)c2nc(-c3ccccc3)cc(=O)n2c1 [Compound 628] |
| < 100 | A (A denotes >20-fold) |  |  | Cc1cc([C@H](C)Nc2ccccc2C(=O)O)c2nc(-c3ccccc3)cc(=O)n2c1 [Compound 629] |
|  |  | C (C denotes ≤5-fold) |  | Cc1cc(C(C)Nc2ccccc2)c2nc(N3Cc4ccccc4C3)cc(=O)n2c1 (centres unmarked) [Compound 647] |
|  |  | C (C denotes ≤5-fold) | > 2000 | Cc1cc([C@@H](C)N[C@H](C(=O)O)c2ccccc2)c2nc(N3CCOCC3)cc(=O)n2c1 [Compound 648] |
|  |  | C (C denotes ≤5-fold) | > 2000 | Cc1cc([C@@H](C)N[C@@H](C(=O)O)c2ccccc2)c2nc(N3CCOCC3)cc(=O)n2c1 [Compound 649] |
|  |  | C (C denotes ≤5-fold) | > 2000 | Cc1cc([C@H](C)N[C@H](C(=O)O)c2ccccc2)c2nc(N3CCOCC3)cc(=O)n2c1 [Compound 650] |
|  |  | C (C denotes ≤5-fold) | > 2000 | Cc1cc([C@H](C)N[C@@H](C(=O)O)c2ccccc2)c2nc(N3CCOCC3)cc(=O)n2c1 [Compound 651] |
|  |  | B (B denotes 20-fold≥value>5-fold) | 500 to 2000 | Cc1cc([C@H](C)Nc2ccccc2C(=O)O)c2nc(N3Cc4ccccc4[C@H]3C)cc(=O)n2c1 [Compound 654] |
|  |  | C (C denotes ≤5-fold) | > 2000 | Cc1cc([C@@H](C)Nc2ccccc2C(=O)O)c2nc(N3Cc4ccccc4[C@H]3C)cc(=O)n2c1 [Compound 655] |
|  |  | B (B denotes 20-fold≥value>5-fold) |  | Cc1cc(C(C)Nc2ccccc2C(=O)O)c2nc(-c3ccc(C(=O)N(C)C)cc3)cc(=O)n2c1 (centres unmarked) [Compound 657] |
|  |  | A (A denotes >20-fold) | 100 to 500 | Cc1cc([C@@H](C)Nc2ccccc2C(=O)O)c2nc(-c3ccc(C(=O)N(C)C)cc3)cc(=O)n2c1 [Compound 658] |
|  |  | C (C denotes ≤5-fold) | > 2000 | Cc1cc([C@H](C)Nc2ccccc2C(=O)O)c2nc(-c3ccc(C(=O)N(C)C)cc3)cc(=O)n2c1 [Compound 659] |
|  |  | A (A denotes >20-fold) | < 100 | CC(=O)c1ccc(-c2cc(=O)n3cc(C)cc([C@@H](C)Nc4ccccc4C(=O)O)c3n2)cc1 [Compound 660] |
